Measured values taken from patent publication US20090081174A1 (priority 2005, published 2009).
Like-named read-outs stand apart in the source and are kept apart here.

Key:
Phytophthora infestans = assay type: in vivo; settings: potato plants, scale 100 to 0
Plasmopara viticola = assay: 7-day preventive activity on Plasmopara viticola, leaf application on vines; assay type: in vivo
Description: Leaves of cultivar Merlot vines, grown in vases, in a conditioned environment (20±1° C., 70% relative humidity) are treated by spraying both sides of the leaves with the mixtures under examination dispersed in an aqueous solution containing a 0.3% of tween 20.
After remaining 7 days in a conditioned environment, the plants are infected on the lower side with an aqueous suspension of spores of Plasmopara viticola (200,000 spores per cm^3).
The plants are kept in a humidity saturated environment, at 21° C., for the incubation period of the fungus and, at the end of this period (7 days), the fungicidal activity is evaluated according to an evaluation percentage scale from 100 (healthy plant) to 0 (completely infected plant).
From the data indicated in tables 1-2, it is possible to verify the synergistic effect of the mixtures, consisting of the mixtures being examined, compared with the expected efficacy using the Limpel formula (“Pesticide Science” (1987), vol. 19, pages 309-315): […]
wherein: • E is the fungicidal activity expected, in the absence of synergistic effects, from a mixture obtained by mixing g·x of compound X with g·y of compound Y; • x is the activity of compound X when used alone with a dosage of g·x; • y is the activity of compound Y when used alone with a dosage of g·y. […]

Row | Molecule | Activity (y) (Phytophthora infestans; Table 4: listed phosphite salt(s) alone at 750 ppm equivalent phosphorous acid) | Activity (y) (Phytophthora infestans; Table 5: listed phosphite salt(s) alone at 750 ppm equivalent phosphorous acid) | Activity (y) (Plasmopara viticola; listed phosphite salt(s) alone at 250 ppm equivalent phosphorous acid, scale 100 to 0) | Activity (y) (Phytophthora infestans; listed salt alone at 750 ppm equivalent phosphorous acid) | Activity (y) (Plasmopara viticola; listed salt alone at 500 ppm equivalent phosphorous acid, scale 100 (healthy) to 0 (completely infected))
1 | O=[PH]([O-])[O-].[Cu+2] [CuHPO3, copper (II) salt of phosphorous acid] | 12 | 12 | 35 | – | –
2 | K2HPO3 [Mixture K2HPO3] | – | – | – | 5 | 45
